Reference: publication PMC5433929, “High-resolution crystal structure of the human CB1 cannabinoid receptor” (Nature, 2016)
pKi: −log10 of the molar value.

What was measured:
[1] = target: CB1; design: method as in PMID 17327489; conditions: cited from earlier work
[2] = target: CB2; design: method as in PMID 17327489; conditions: cited from earlier work
[3] = target: CB1-PGS (Homo sapiens, UniProt P21554, DEL304-332/H302F/INS301[…]); assay: Differential scanning fluorimetry on detergent-solubilized receptor; conditions: 10 μM ligand
Chain of CB1-PGS (P21554 with tags, fused parts or gaps INS301[withheld]/H302F/DEL304-332): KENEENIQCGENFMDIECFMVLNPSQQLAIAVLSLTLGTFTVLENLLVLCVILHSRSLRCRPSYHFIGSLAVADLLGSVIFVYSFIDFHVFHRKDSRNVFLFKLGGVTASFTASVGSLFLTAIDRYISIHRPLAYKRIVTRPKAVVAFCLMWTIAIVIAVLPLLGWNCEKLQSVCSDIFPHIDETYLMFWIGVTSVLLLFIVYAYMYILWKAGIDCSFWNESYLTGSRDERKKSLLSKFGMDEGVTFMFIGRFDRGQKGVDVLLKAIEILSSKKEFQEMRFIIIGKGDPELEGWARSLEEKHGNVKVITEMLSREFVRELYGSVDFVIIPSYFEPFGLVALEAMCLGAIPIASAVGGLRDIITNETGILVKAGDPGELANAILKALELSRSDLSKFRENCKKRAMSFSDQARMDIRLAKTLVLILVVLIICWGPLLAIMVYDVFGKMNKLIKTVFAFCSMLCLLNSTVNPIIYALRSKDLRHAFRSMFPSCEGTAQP
Experimental: Differential Scanning Fluorimetry (DSF) assays were performed in 96-well PCR plates using an RT-PCR machine (CFX96, Bio-Rad). Standard assay conditions (25 μL) were 25mM HEPES pH 7.5, 150 mM NaCl, 0.01% LMNG, 0.002% CHS and 10 μM corresponding ligands. The protein concentration was 2 μM and the BODIPY FL-L-cystine dye[38] was added at 2 μM final. All reactions were incubated at 4°C for 20 min before scanning in the PCR machine. The fluorescence was measured at 0.5°C temperature intervals from 4°C to 90°C by using the FAM filter set (450–490 nm excitation, 515–530 nm emission).

For C[C@H](NC(=O)C(C)(C)Oc1ccc(C(F)(F)F)cn1)[C@@H](Cc1ccc(Cl)cc1)c1cccc(C#N)c1 [taranabant, N-[(1S,2S)-3-(4-chlorophenyl)-2-(3-cyanophenyl)-1-methylpropyl]-2-methyl-2-{[5-(trifluoromethyl)pyridin-2-yl]oxy}propanamide], the pKi [1] is listed as 9.89, the pKi [2] is listed as 6.77 and the “effect on receptor thermostability (DSF)” value [3] is listed as “enhanced thermostability”.
